Test results from patent publication US9845340B2, “Peptides that specifically bind HGF receptor (cMet) and uses thereof” (Dyax Corp., priority 2003, dated 2017).

Columns and labels:
cMet-Fc fusion protein = cMet-Fc fusion protein (Homo sapiens, UniProt P08581); assay: Protein phage ELISA: peptide-displaying phage binding to soluble cMet-Fc versus TRAIL-Fc; conditions: phage isolate; cMet-Fc vs. TRAIL-Fc
Protocol: Protein phage ELISAs using peptide-displaying phage isolates from the various selection campaigns were performed to determine specificity of the peptides for cMet versus an unrelated Fc-fusion protein (TRAIL-Fc). Briefly, 384-well plates were coated overnight at 4 C with 0.5 μg/mL of cMet-Fc fusion protein or TRAIL-Fc fusion protein (background). The plates were blocked for 2 hours 37C with 3% (w/v) BSA in PBS containing 0.05% (v/v) Tween-20 (PBST). The plates were washed with PBST and 100 μL of peptide-displaying phage were added to each well. The plates were incubated for 2 hours at room temperature and washed with PBST. cMet-binding peptide-displaying phage were detected using an HRP-conjugated anti-M13 antibody.

[1] = target: T1, 3T3 cells that over-express human cMet (Homo sapiens, UniProt P08581); assay: Whole cell ELISA of peptide-displaying phage; format: cell-based; conditions: phage isolate; 3T3 cells expressing human cMet vs. non-expressing 3T3 cells
T1 construct: expressed in transfected cells; host or cells: 3T3 cells
Protocol: Whole cell ELISAs were performed using 3T3 cells that over-express human cMet. […] Briefly, 96-well plates were seeded with 10^5 cells per well. The plates were centrifuged for 5 minutes at 1600 rpm to pellet the cells. The resulting cell layer was fixed with 0.1% (v/v) glutaraldehyde for 12 minutes at 37 C. […] Peptide-displaying phage also were blocked in the above solution for 1 hour at 37 C. 100 μL of blocked phage was then added to each well and the plates were incubated for 1 hour at room temperature. The plates were washed with PBST. cMet-binding peptide-displaying phage were detected using an HRP-conjugated anti-M13 antibody.

cMet-Fc fusion protein, sequence (P08581 25-307 limits assumed): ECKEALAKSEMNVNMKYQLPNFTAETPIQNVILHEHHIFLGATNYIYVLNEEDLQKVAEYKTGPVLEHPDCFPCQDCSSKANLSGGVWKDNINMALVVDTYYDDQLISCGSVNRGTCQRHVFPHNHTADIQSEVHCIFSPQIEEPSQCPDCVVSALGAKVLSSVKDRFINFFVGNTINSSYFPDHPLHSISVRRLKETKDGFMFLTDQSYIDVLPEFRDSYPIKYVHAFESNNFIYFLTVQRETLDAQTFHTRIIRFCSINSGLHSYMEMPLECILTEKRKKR
cMet-Fc fusion protein, sequence (P08581 with tags, fused parts or gaps limits assumed): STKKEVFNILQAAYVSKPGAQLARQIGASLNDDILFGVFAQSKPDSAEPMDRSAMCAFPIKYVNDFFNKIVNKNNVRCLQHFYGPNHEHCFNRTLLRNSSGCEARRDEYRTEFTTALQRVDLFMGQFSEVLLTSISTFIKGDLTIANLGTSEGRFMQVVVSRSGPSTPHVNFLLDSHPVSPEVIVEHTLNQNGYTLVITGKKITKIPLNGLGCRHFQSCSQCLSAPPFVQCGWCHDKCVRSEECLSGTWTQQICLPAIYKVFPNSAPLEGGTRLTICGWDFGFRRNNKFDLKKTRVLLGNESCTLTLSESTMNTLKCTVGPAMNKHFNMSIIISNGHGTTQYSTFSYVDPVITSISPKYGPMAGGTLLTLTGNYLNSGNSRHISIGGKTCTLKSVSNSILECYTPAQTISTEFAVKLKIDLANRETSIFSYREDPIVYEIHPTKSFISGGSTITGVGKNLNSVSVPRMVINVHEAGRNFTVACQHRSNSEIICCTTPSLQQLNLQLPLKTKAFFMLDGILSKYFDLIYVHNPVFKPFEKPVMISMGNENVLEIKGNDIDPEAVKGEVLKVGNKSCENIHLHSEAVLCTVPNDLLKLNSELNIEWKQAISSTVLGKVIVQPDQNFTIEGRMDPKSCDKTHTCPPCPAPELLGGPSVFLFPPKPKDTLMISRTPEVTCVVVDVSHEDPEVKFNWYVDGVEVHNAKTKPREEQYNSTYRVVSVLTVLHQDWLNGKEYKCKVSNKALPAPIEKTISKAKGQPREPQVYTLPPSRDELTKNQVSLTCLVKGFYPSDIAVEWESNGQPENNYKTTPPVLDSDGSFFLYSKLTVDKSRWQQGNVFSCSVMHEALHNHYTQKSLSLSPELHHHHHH
T1 sequence (P08581 25-1390): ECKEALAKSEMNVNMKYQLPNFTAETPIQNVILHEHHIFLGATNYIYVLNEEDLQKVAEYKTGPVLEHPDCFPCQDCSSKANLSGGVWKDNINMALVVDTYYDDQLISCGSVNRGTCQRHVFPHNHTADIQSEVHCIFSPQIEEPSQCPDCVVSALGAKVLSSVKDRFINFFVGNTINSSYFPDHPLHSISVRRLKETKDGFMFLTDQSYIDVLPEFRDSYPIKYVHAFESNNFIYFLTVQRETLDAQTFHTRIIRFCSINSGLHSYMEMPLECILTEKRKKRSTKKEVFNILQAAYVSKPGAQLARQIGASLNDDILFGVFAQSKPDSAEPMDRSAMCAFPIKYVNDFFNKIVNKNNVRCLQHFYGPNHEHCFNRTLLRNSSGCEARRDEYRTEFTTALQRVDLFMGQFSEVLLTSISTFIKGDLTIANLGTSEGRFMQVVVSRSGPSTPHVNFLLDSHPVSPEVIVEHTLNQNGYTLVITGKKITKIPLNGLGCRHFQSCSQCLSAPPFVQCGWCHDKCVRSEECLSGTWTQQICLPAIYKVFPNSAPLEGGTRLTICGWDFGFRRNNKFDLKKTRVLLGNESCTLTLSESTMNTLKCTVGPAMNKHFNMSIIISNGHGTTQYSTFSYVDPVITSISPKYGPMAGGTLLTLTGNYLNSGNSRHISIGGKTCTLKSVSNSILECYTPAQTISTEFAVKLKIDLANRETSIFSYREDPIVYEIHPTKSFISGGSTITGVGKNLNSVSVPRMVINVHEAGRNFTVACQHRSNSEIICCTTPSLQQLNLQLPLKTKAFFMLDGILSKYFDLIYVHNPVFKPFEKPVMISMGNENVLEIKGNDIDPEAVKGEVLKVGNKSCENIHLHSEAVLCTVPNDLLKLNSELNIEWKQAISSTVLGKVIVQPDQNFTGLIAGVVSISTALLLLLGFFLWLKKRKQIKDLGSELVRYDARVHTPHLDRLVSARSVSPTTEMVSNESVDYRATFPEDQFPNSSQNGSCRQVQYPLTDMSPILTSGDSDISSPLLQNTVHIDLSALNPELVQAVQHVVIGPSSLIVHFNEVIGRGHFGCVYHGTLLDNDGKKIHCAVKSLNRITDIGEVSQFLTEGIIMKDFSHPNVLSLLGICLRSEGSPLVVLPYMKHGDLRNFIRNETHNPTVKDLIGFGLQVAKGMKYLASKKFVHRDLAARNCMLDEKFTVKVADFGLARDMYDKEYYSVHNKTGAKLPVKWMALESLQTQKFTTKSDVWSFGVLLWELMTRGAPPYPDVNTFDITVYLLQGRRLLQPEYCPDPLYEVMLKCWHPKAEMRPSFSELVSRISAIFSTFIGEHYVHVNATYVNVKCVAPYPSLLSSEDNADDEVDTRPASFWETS

SMILES	Protein ELISA (cMet-Fc fusion protein)	WC ELISA [1]
CSCC[C@H](NC(=O)[C@H](CCCNC(=N)N)NC(=O)[C@H](Cc1c[nH]c2ccccc12)NC(=O)[C@H](CO)NC(=O)[C@H](CO)NC(=O)[C@H](CC(C)C)NC(=O)[C@H](Cc1ccccc1)NC(=O)[C@H](CC(=O)O)NC(=O)[C@H](CC(C)C)NC(=O)[C@H](Cc1ccc(O)cc1)NC(=O)[C@H](Cc1c[nH]c2ccccc12)NC(=O)[C@H](Cc1ccc(O)cc1)NC(=O)[C@@H]1CCCN1C(=O)[C@H](CCC(=O)O)NC(=O)[C@H](CCC(=O)O)NC(=O)[C@@H](NC(=O)[C@H](CCC(=O)O)NC(=O)[C@H](CCCNC(=N)N)NC(=O)[C@H](CCC(N)=O)NC(=O)[C@H](C)NC(C)=O)C(C)C)C(=O)N[C@@H](Cc1c[nH]cn1)C(=O)N[C@@H](CCC(=O)O)C(=O)NCC(=O)NCC(=O)NCC(=O)N[C@@H](CCCCNC(=O)c1ccc2c(c1)C(=O)OC21c2ccc(O)cc2Oc2cc(O)ccc21)C(N)=O [SEQ ID NO: 451]	8.2 fold over background	1.33 fold over background
CC[C@H](C)[C@H](NC(=O)[C@@H]1CCCN1C(=O)[C@H](Cc1ccc(O)cc1)NC(=O)[C@H](CO)NC(=O)[C@H](CCSC)NC(=O)[C@H](C)NC(=O)[C@H](CC(C)C)NC(=O)[C@H](CCCCN)NC(=O)[C@H](Cc1ccc(O)cc1)NC(=O)[C@H](Cc1c[nH]cn1)NC(=O)[C@H](C)NC(=O)[C@H](CCC(=O)O)NC(=O)[C@@H]1CCCN1C(=O)[C@H](CCCNC(=N)N)NC(=O)[C@H](CCC(N)=O)NC(=O)[C@H](C)NC(C)=O)C(=O)N[C@H](C(=O)N1CCC[C@H]1C(=O)N[C@@H](CCCNC(=N)N)C(=O)N[C@H](C(=O)N[C@@H](CCCCN)C(=O)N[C@H](C(=O)NCC(=O)NCC(=O)NCC(=O)N[C@@H](CCCCNC(=O)c1ccc2c(c1)C(=O)OC21c2ccc(O)cc2Oc2cc(O)ccc21)C(N)=O)[C@@H](C)O)[C@@H](C)O)[C@@H](C)CC [SEQ ID NO: 452]	35.3 fold over background	1.37 fold over background
CSCC[C@H](NC(=O)CNC(=O)[C@@H]1CCCN1C(=O)[C@H](CO)NC(=O)[C@H](CO)NC(=O)[C@H](Cc1c[nH]c2ccccc12)NC(=O)[C@H](CCCNC(=N)N)NC(=O)[C@H](CCC(N)=O)NC(=O)[C@H](C)NC(C)=O)C(=O)N[C@@H](CO)C(=O)N[C@@H](CCC(N)=O)C(=O)N[C@@H](CO)C(=O)N[C@@H](Cc1ccccc1)C(=O)N[C@H](C(=O)N[C@@H](CC(C)C)C(=O)N[C@@H](CCC(=O)O)C(=O)N[C@@H](Cc1c[nH]c2ccccc12)C(=O)N[C@@H](CCCCN)C(=O)N[C@@H](Cc1c[nH]c2ccccc12)C(=O)N[C@@H](CC(N)=O)C(=O)N[C@@H](CC(=O)O)C(=O)N[C@@H](CC(N)=O)C(=O)NCC(=O)NCC(=O)NCC(=O)N[C@@H](CCCCNC(=O)c1ccc2c(c1)C(=O)OC21c2ccc(O)cc2Oc2cc(O)ccc21)C(N)=O)C(C)C [SEQ ID NO: 453]	11.3 fold over background	1.30 fold over background
CC[C@H](C)[C@H](NC(=O)[C@H](Cc1ccccc1)NC(=O)[C@H](CCC(N)=O)NC(=O)[C@H](Cc1ccccc1)NC(=O)[C@@H](NC(=O)[C@H](Cc1c[nH]c2ccccc12)NC(=O)[C@@H](NC(=O)[C@H](CC(=O)O)NC(=O)[C@H](Cc1ccc(O)cc1)NC(=O)[C@H](CCC(N)=O)NC(=O)[C@H](C)NC(C)=O)[C@@H](C)O)C(C)C)C(=O)N[C@@H](Cc1c[nH]cn1)C(=O)N[C@@H](CCC(=O)O)C(=O)N[C@H](C(=O)N1CCC[C@H]1C(=O)NCC(=O)N[C@@H](CCC(=O)O)C(=O)N[C@@H](CC(C)C)C(=O)N[C@H](C(=O)N[C@@H](C)C(=O)N[C@@H](CCSC)C(=O)N[C@@H](CCC(N)=O)C(=O)NCC(=O)NCC(=O)NCC(=O)N[C@@H](CCCCNC(=O)c1ccc2c(c1)C(=O)OC21c2ccc(O)cc2Oc2cc(O)ccc21)C(N)=O)C(C)C)C(C)C [SEQ ID NO: 454]	8.9 fold over background	1.23 fold over background
CSCC[C@H](NC(=O)[C@@H]1CCCN1C(=O)[C@H](CO)NC(=O)CNC(=O)[C@@H](NC(=O)[C@H](CCC(N)=O)NC(=O)[C@H](C)NC(C)=O)C(C)C)C(=O)N[C@@H](CC(C)C)C(=O)N1CCC[C@H]1C(=O)N[C@@H](CO)C(=O)N[C@@H](Cc1c[nH]c2ccccc12)C(=O)N[C@@H](Cc1ccccc1)C(=O)N[C@@H](CO)C(=O)N[C@@H](Cc1ccccc1)C(=O)N[C@@H](CCC(=O)O)C(=O)N[C@@H](C)C(=O)N[C@@H](CC(N)=O)C(=O)N[C@@H](Cc1c[nH]c2ccccc12)C(=O)N[C@@H](CO)C(=O)N[C@@H](CO)C(=O)NCC(=O)NCC(=O)NCC(=O)N[C@@H](CCCCNC(=O)c1ccc2c(c1)C(=O)OC21c2ccc(O)cc2Oc2cc(O)ccc21)C(N)=O [SEQ ID NO: 456]	7.0 fold over background	1.30 fold over background
CSCC[C@H](NC(=O)[C@H](CC(=O)O)NC(=O)[C@H](C)NC(=O)[C@H](CC(=O)O)NC(=O)[C@H](CCC(N)=O)NC(=O)[C@H](CC(C)C)NC(=O)[C@H](CCC(=O)O)NC(=O)[C@H](Cc1ccc(O)cc1)NC(=O)[C@H](Cc1ccc(O)cc1)NC(=O)[C@@H]1CCCN1C(=O)[C@H](CCC(N)=O)NC(=O)[C@H](C)NC(C)=O)C(=O)N[C@@H](CC(C)C)C(=O)N[C@@H](CC(C)C)C(=O)N[C@H](C(=O)N[C@H](C(=O)N[C@@H](C)C(=O)N[C@@H](CC(C)C)C(=O)N[C@@H](CC(C)C)C(=O)N[C@@H](CO)C(=O)N[C@H](C(=O)NCC(=O)NCC(=O)NCC(=O)NCC(=O)N[C@@H](CCCCNC(=O)c1ccc2c(c1)C(=O)OC21c2ccc(O)cc2Oc2cc(O)ccc21)C(N)=O)[C@@H](C)O)C(C)C)C(C)C [SEQ ID NO: 458]	6.1 fold over background	1.20 fold over background
CC[C@H](C)[C@H](NC(=O)[C@H](C)NC(=O)[C@H](CCC(=O)O)NC(=O)[C@H](C)NC(=O)[C@@H](NC(=O)CNC(=O)[C@@H](NC(=O)[C@H](CCC(N)=O)NC(=O)[C@H](C)NC(C)=O)C(C)C)[C@@H](C)O)C(=O)N[C@@H](CCSC)C(=O)N[C@@H](Cc1ccccc1)C(=O)N[C@@H](CO)C(=O)N[C@@H](CC(=O)O)C(=O)N[C@H](C(=O)N[C@@H](CCC(=O)O)C(=O)N[C@@H](CC(=O)O)C(=O)N[C@H](C(=O)NCC(=O)N[C@H](C(=O)N[C@@H](Cc1c[nH]cn1)C(=O)N[C@@H](CCCCN)C(=O)N[C@@H](Cc1ccccc1)C(=O)NCC(=O)NCC(=O)NCC(=O)N[C@@H](CCCCNC(=O)c1ccc2c(c1)C(=O)OC21c2ccc(O)cc2Oc2cc(O)ccc21)C(N)=O)C(C)C)[C@@H](C)O)C(C)C [SEQ ID NO: 459]	5.7 fold over background	1.33 fold over background
CC(=O)N[C@@H](C)C(=O)N[C@@H](CCC(N)=O)C(=O)N[C@@H](CC(=O)O)C(=O)N[C@@H](CC(C)C)C(=O)N[C@@H](CCCCN)C(=O)N1CCC[C@H]1C(=O)N[C@@H](Cc1c[nH]c2ccccc12)C(=O)N[C@H](C(=O)N[C@@H](C)C(=O)NCC(=O)N[C@@H](Cc1c[nH]c2ccccc12)C(=O)N[C@@H](CCC(=O)O)C(=O)N1CCC[C@H]1C(=O)N1CCC[C@H]1C(=O)N[C@@H](Cc1c[nH]c2ccccc12)C(=O)N[C@@H](CC(C)C)C(=O)N[C@@H](Cc1c[nH]c2ccccc12)C(=O)N[C@H](C(=O)N[C@@H](CC(=O)O)C(=O)N[C@@H](CCCNC(=N)N)C(=O)NCC(=O)N1CCC[C@H]1C(=O)NCC(=O)NCC(=O)NCC(=O)N[C@@H](CCCCNC(=O)c1ccc2c(c1)C(=O)OC21c2ccc(O)cc2Oc2cc(O)ccc21)C(N)=O)[C@@H](C)O)[C@@H](C)O [SEQ ID NO: 461]	5.0 fold over background	1.30 fold over background
CC[C@H](C)[C@H](NC(=O)[C@H](Cc1c[nH]cn1)NC(=O)[C@H](CC(C)C)NC(=O)[C@@H](NC(=O)[C@H](CCSC)NC(=O)[C@H](CCSC)NC(=O)[C@H](CCC(N)=O)NC(=O)CNC(=O)[C@H](Cc1ccc(O)cc1)NC(=O)[C@H](CCC(N)=O)NC(=O)[C@H](Cc1c[nH]cn1)NC(=O)[C@H](CCC(N)=O)NC(=O)[C@H](C)NC(C)=O)C(C)C)C(=O)N[C@@H](CCC(N)=O)C(=O)N[C@@H](Cc1ccc(O)cc1)C(=O)N[C@@H](CC(=O)O)C(=O)N[C@@H](CCSC)C(=O)NCC(=O)N[C@@H](CCC(=O)O)C(=O)N[C@@H](Cc1ccccc1)C(=O)N[C@H](C(=O)N1CCC[C@H]1C(=O)NCC(=O)NCC(=O)NCC(=O)N[C@@H](CCCCNC(=O)c1ccc2c(c1)C(=O)OC21c2ccc(O)cc2Oc2cc(O)ccc21)C(N)=O)[C@@H](C)CC [SEQ ID NO: 462]	4.5 fold over background	1.27 fold over background
CC[C@H](C)[C@H](NC(=O)[C@H](CCC(N)=O)NC(=O)[C@H](CCCNC(=N)N)NC(=O)CNC(=O)[C@H](CO)NC(=O)[C@H](CC(=O)O)NC(=O)[C@H](CC(=O)O)NC(=O)[C@@H](NC(=O)[C@@H]1CCCN1C(=O)[C@H](Cc1ccccc1)NC(=O)[C@@H](NC(=O)[C@H](Cc1ccc(O)cc1)NC(=O)[C@@H]1CCCN1C(=O)[C@H](CO)NC(=O)[C@H](CCC(N)=O)NC(=O)[C@H](C)NC(C)=O)[C@@H](C)CC)[C@@H](C)CC)C(=O)N[C@@H](Cc1ccccc1)C(=O)N[C@H](C(=O)N[C@H](C(=O)N[C@@H](CCC(N)=O)C(=O)N[C@@H](Cc1c[nH]c2ccccc12)C(=O)NCC(=O)NCC(=O)NCC(=O)NCC(=O)N[C@@H](CCCCNC(=O)c1ccc2c(c1)C(=O)OC21c2ccc(O)cc2Oc2cc(O)ccc21)C(N)=O)[C@@H](C)CC)C(C)C [SEQ ID NO: 463]	4.4 fold over background	1.23 fold over background
